Experiments:
[1] = target: T1, AGTR1 (Homo sapiens, UniProt P30556); test: NanoBRET screen HiBiT-AGTR1 in HEK293; format: binding
T1 construct: purchased Promega (in-house HiBiT-GPCR construct library, NanoBRET)
T1 sequence (P30556 1-359): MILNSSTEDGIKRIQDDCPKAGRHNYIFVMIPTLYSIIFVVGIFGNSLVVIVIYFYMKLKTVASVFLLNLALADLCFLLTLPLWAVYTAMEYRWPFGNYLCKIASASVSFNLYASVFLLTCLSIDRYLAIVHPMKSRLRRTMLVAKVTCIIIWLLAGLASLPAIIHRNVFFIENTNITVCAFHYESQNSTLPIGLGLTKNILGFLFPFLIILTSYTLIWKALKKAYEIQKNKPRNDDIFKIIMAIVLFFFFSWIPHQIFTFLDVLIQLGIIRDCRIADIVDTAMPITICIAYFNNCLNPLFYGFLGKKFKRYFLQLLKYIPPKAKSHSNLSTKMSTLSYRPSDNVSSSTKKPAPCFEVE
Method: (§1) Each tracer candidate was screened across the entire library of HiBiT-GPCR constructs using NanoBRET as the detection modality. As depicted in Figure 4A, the specificity of interactions was evaluated through decrease in BRET due to competitive displacement of a bound tracer by excess parental compound. Each tracer was analyzed for binding to each HiBiT-GPCR fusion in the absence and in the presence of competing parental compound. Briefly, HEK293 cells were transfected with HiBiT-GPCR constructs diluted into promoterless DNA to reduce expression and maximize translocation to the cell surface. Each tracer candidate was then screened at concentrations of 1 μM and 0.1 μM across cells expressing these fusions. Cells were treated for 1.5 h with tracer either alone or in the presence of 20 μM competing parental compound (i.e., control). BRET was measured upon addition of purified LgBiT and subsequent complementation with HiBiT genetically fused to a GPCR. The specificity of interactions was assessed through a decrease in BRET signal due to competitive displacement of the bound tracer. To further gauge the robustness of these interactions, the fold response over the control (i.e., BRETtracer/BRETcontrol) was calculated. We chose a 1.5-fold response, which translates to ≥7-fold signal over noise as the minimal threshold required to score an interaction as positive. […]. Below we highlight the screening results obtained for our exemplary fluorescent tracers based on Clozapine, Amitriptyline and AZD1283.
(§2) HiBiT-GPCR DNA constructs were diluted in 10 mM Tris pH 8 to a final concentration of 0.01 μg/μL, arrayed in 96-well plates and stored at −20 °C. For transfection, HEK293 cells were suspended in Opti-MEM (without phenol red) supplemented with 2% fetal bovine serum (Seradigm) and 100 units/mL penicillin–streptomycin (Gibco) at a final concentration of 220,000 cells/mL and dispensed into white 96-well plates at 90 μL/well. Subsequent transfections and screens were carried using an Agilent Bravo Automated Liquid Handling Platform. First, the 96-well HiBiT DNA arrays were diluted 25-fold in Opti-MEM (without serum or phenol red) to a final concentration of 0.0004 μg/μL and 20 μL of the diluted DNAs were transferred into new 96-well plates. Next, promoterless carrier DNA (1 μg/μL) was diluted 25-fold (0.04 μg/μL) and then dispensed into the diluted arrays at 20 μL/well. Following brief mixing, Viafect transfection reagent (Promega) diluted 16-fold into Opti-MEM was dispensed into the plates at 40 μL/well. After mixing by pipetting, plates were incubated for 10 min on the pipetting station deck. The DNA-transfection reagent complexes were then added to plates containing cells. To facilitate the screen, 10 μL of DNA-transfection reagent complexes were added in duplicates to the top 4 and bottom 4 rows, resulting in two identical 48-well arrays per plate. Plates with transfected cells were incubated for 18–20 h at 37 °C/5% CO2. A screen of each tracer across the entire library using two different concentrations requires duplicate plates of transfected cells. Depending on the number of tracers being screened, transfections can be scaled up using the same ratios. The next day, for each tracer, four 20× screening solutions in tracer dilution buffer (Promega) were prepared: two duplicates at final concentration of 20 μM and two duplicates at a final concentration of 2 μM. A competing unmodified compound was added to one of each duplicate at a final concentration of 400 μM. The four resulting solutions were diluted 4-fold in Opti-MEM without serum or phenol red to generate 5× solutions (5 µM and 0.5 µM tracer +/− 100 μM competing compound). To screen the library, a BioTek MultiFlo FX liquid dispenser was used to dispense 22.5 µL of tracer solution to the top 4 rows and 22.5 µL tracer + competing compound solution to the 4 bottom rows. Plates were briefly mixed on an orbital shaker and incubated for 1.5 h at room temperature. […]

[2] = target: T2, FZD6 (Homo sapiens, UniProt O60353); test: NanoBRET screen HiBiT-FZD6 in HEK293; format: binding
T2 construct: purchased Promega (in-house HiBiT-GPCR construct library, NanoBRET)
T2 sequence (O60353 19-706): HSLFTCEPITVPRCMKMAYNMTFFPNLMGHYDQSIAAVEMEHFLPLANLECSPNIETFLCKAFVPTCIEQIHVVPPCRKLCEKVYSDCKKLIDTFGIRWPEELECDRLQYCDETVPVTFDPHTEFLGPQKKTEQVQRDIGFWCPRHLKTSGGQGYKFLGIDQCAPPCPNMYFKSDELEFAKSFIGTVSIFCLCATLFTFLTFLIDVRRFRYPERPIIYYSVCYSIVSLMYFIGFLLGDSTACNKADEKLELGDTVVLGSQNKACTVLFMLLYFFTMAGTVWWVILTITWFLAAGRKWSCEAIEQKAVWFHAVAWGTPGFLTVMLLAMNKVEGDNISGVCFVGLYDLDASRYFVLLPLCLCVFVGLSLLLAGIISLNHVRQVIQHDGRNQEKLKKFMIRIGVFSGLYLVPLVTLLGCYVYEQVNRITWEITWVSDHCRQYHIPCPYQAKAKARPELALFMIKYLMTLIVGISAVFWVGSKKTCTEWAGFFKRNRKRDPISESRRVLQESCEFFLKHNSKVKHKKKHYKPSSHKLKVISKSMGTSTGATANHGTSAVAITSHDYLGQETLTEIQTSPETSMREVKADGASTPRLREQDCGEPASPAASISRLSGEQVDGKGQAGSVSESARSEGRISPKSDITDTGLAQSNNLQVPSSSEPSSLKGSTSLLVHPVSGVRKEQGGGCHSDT
Method: as §1, §2

[3] = tracer at 0.1μM, listed as amitriptyline-b-2-NB590

SMILES	NanoBRET Fold Response ([1]; AGTR1, tracer 0.1μM)	NanoBRET Fold Response ([1]; AGTR1, tracer 1μM)	NanoBRET Fold Response ([2]; FZD6, tracer 0.1μM)	NanoBRET Fold Response ([2]; FZD6, tracer 1μM)	also measured
O=C(CCOCCOCCOCCOCCNC(=O)CCc1ccc2n1[B-](F)(F)[N+]1=C(c3ccc[nH]3)C=CC1=C2)NCCCN1CCN(C2=Nc3ccccc3Oc3ccc(Cl)cc32)CC1 [Loxapine-a-2-NB590]	0.96	1.08	1.09	1.06	–
COc1ccccc1N1CCN(CCCCN2C(=O)c3ccc(CNC(=O)CCOCCOCCOCCOCCNC(=O)CCc4ccc5n4[B-](F)(F)[N+]4=C(c6ccc[nH]6)C=CC4=C5)cc3C2=O)CC1 [NAN-190-2-NB590]	1.04	1.11	0.95	1.04	–
CC(C)N(CC[C@H](c1ccccc1)c1cc(CCNC(=O)c2ccc(CNC(=O)CCc3ccc4n3[B-](F)(F)[N+]3=C(c5ccc[nH]5)C=CC3=C4)cc2)ccc1O)C(C)C [Tolterodine-BZ-NB590]	1.06	1.00	0.97	1.04	–
O=C(CCc1ccc2n1[B-](F)(F)[N+]1=C(c3ccc[nH]3)C=CC1=C2)NCCOCCOCCNC(=O)OCCOCCN1CCN(C2=Nc3ccccc3Sc3ccccc32)CC1 [Quetiapine-a-2-NB590]	1.00	0.92	1.01	1.15	–
CN1CCN(C2=Nc3cc(Cl)ccc3Nc3ccc(CNC(=O)CCOCCOCCOCCOCCNC(=O)CCc4ccc5n4[B-](F)(F)[N+]4=C(c6ccc[nH]6)C=CC4=C5)cc32)CC1 [Clozapine-b-2-NB590]	–	–	–	–	NanoBRET Fold Response ([1]; AGTR1, 0.1μM tracer): 1.01; NanoBRET Fold Response ([1]; AGTR1, 1μM tracer): 1.06; NanoBRET Fold Response ([2]; FZD6, 0.1μM tracer): 1.03; NanoBRET Fold Response ([2]; FZD6, 1μM tracer): 1.04
CC(C)N(CC[C@H](c1ccccc1)c1cc(CCNC(=O)CCOCCOCCOCCOCCNC(=O)CCc2ccc3n2[B-](F)(F)[N+]2=C(c4ccc[nH]4)C=CC2=C3)ccc1O)C(C)C [Tolterodine-2-NB590]	1.12	1.00	0.83	0.88	–
CN(C)CCC=C1c2ccccc2CCc2ccc(C(=O)NCCNC(=O)CCOCCOCCOCCOCCNC(=O)CCc3ccc4n3[B-](F)(F)[N+]3=C(c5ccc[nH]5)C=CC3=C4)cc21 [Amitriptyline-a-2-NB590]	–	–	–	–	NanoBRET Fold Response ([1]; tracer at 0.1μM): 1.04; NanoBRET Fold Response ([1]; tracer at 1μM): 1.00; NanoBRET Fold Response ([2]; tracer at 0.1μM): 1.10; NanoBRET Fold Response ([2]; tracer at 1μM): 1.03
Cc1cc2c(s1)Nc1ccccc1N=C2N1CCN(CCCNC(=O)CCOCCOCCOCCOCCNC(=O)CCc2ccc3n2[B-](F)(F)[N+]2=C(c4ccc[nH]4)C=CC2=C3)CC1 [Olanzapine-a-2-NB590]	0.94	0.95	1.03	0.98	–
N#CN=C(NCCCOc1cccc(CN2CCCCC2)c1)NCCNC(=O)CCOCCOCCOCCOCCNC(=O)CCc1ccc2n1[B-](F)(F)[N+]1=C(c3ccc[nH]3)C=CC1=C2 [Aminopotentidine-2-NB590]	1.00	0.96	1.03	1.03	–
Cc1nc2n(c(=O)c1CCN1CCC(c3noc4cc(F)ccc34)CC1)CCCC2OC(=O)NCCOCCOCCOCCOCCNC(=O)CCc1ccc2n1[B-](F)(F)[N+]1=C(c3ccc[nH]3)C=CC1=C2 (centres unmarked) [Risperidone-2-NB590]	0.99	0.98	1.01	1.10	–
CN(C)CCC=C1c2ccccc2CCc2ccc(C(=O)NCCNC(=O)CCOCCOCCOCCOCCNC(=O)CCc3ccc4n3[B-](F)(F)[N+]3=C(c5ccc[nH]5)C=CC3=C4)cc21 [Amitriptyline-b-2-NB590]	–	–	–	–	NanoBRET Fold Response [1, 3]: 1.12; NanoBRET Fold Response ([1]; tracer at 1μM, listed as amitriptyline-b-2-NB590): 0.81; NanoBRET Fold Response [2, 3]: 1.00; NanoBRET Fold Response ([2]; tracer at 1μM): 0.98
